{"source": "patent US10377763B2", "about": "“Morphinan derivative and medical usage thereof” (UNIVERSITY OF TSUKUBA, priority 2015, dated 2019)", "key": {"human OX1R": {"target": "human OX1R (Homo sapiens (Human), UniProt O43613)", "sequence (O43613 whole entry)": "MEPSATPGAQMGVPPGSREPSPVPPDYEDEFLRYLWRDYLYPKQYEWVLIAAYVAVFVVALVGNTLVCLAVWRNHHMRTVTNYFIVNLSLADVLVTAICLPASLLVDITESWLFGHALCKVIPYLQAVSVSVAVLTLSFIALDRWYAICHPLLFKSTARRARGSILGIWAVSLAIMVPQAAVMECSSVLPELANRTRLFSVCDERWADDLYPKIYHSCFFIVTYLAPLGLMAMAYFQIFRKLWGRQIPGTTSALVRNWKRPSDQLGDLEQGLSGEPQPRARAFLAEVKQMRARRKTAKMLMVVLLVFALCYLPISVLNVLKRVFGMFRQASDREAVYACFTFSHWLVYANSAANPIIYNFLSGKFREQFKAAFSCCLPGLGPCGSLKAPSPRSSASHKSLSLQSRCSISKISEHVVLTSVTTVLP", "experiment": "Measurement of antagonistic activity against orexin receptors (intracellular calcium, CHOOX1R cells)", "format": "cell-based", "conditions": "for antagonistic activity against human OX1 receptor (in words): summary of Table 6", "description": "(§1) The Chinese hamster ovary (CHO) cell lines CHOOX1R and CHOOX2R were established by modifying CHO cells to constantly express the NFAT-luciferase gene and either the human OX1R or human OX2R gene. Those cells were plated at 10,000 cells/well in 96-well multiplates with DMEM (manufactured by Sigma-Aldrich Co. LLC) supplemented with 5% FBS (manufactured by Thermo Scientific Inc.) and incubated at 37° C. and 5% CO2 for 48 hours. After removal of the medium, 100 μL of an assay buffer (20 mM HEPES (manufactured by Sigma-Aldrich Co. LLC), Hank's balanced salt solution (manufactured by Gibco), 0.1% BSA (manufactured by Sigma-Aldrich Co. LLC), 2.5 mM probenecid acid (manufactured by Wako Pure Chemical Industries, Ltd.), pH 7.4) containing 5 μM Fura-2AM (manufactured by Cayman Chemical Co.) was added to each well, and incubated at 37° C. and 5% CO2 for 60 minutes. After removal of the buffer containing Fura-2AM, 75 μL of the assay buffer was added to each well. Then, […] of the assay buffer containing a test compound at various concentrations and OX-A (manufactured by Peptide Institute, Inc.) was added to start the reaction. The change in intracellular calcium ion concentration induced by the reaction was evaluated by the ratio of fluorescent intensities, which were measured at a wavelength of 510 nm based on the two wavelength excitation approach using FDSS 7000 (manufactured by Hamamatsu Photonics K.K.) with fluorescence excitation at 340 nm and 380 nm. A concentration-response curve on the antagonistic activity was plotted from the values of maximal fluorescent intensity ratio determined when various concentrations of a test compound were added in the presence of […] of OX-A, where a value of maximal fluorescent intensity ratio determined by adding 300 pM of OX-A alone corresponds to 100% and a value of maximal fluorescent intensity ratio determined by adding the assay buffer alone corresponds to 0%. Based on the resulting non-linear regression curve, the 50% maximal inhibitory concentration (IC50) was calculated. Each test compound was dissolved in DMSO to a concentration of 10 mM (the final concentration of DMSO was 1%), and then diluted with the assay buffer to give a final concentration of 3.0×10^−10 M to 1.0×10^−5 M (a common ratio of 3), while OX-A was diluted to a final concentration of 300 pM. The experiment was performed in quadruplicate plates, and the results of the four independent measurements were averaged to give the value of each reaction, and then the IC50 of a sample was calculated. If the sample number was 2 or more, the averaged IC50 was used."}, "human OX2R": {"target": "human OX2R (Homo sapiens (Human), UniProt O43614)", "sequence (O43614 whole entry)": "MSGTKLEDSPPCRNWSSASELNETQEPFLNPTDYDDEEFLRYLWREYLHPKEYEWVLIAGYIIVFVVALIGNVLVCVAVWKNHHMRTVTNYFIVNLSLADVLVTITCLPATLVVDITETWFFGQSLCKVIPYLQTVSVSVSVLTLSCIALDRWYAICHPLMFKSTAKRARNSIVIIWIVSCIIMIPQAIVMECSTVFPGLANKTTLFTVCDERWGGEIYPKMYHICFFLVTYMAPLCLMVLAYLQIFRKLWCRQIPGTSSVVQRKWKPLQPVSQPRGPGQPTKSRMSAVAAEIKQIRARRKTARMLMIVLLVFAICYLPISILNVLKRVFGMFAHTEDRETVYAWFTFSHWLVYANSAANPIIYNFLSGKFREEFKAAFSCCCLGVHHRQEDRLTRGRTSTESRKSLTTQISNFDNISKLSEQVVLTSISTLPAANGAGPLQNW", "experiment": "Measurement of antagonistic activity against orexin receptors (intracellular calcium, CHOOX2R cells)", "format": "cell-based", "description": "as §1"}, "[1]": {"system": "male ICR mice with morphine physical dependence", "experiment": "Evaluation of the prophylactic effect on drug dependence (naloxone-induced withdrawal syndrome in morphine-dependent mice)", "format": "in vivo", "conditions": "10 mg/kg repeatedly with morphine Day 1-5, naloxone 3 mg/kg s.c.", "description": "Increasing doses of morphine hydrochloride dissolved in saline were administered subcutaneously to 7-week-old male ICR mice twice daily (dosing interval: about 12 hours) for four days (dose: Day 1, 8 mg/kg followed by 15 mg/kg; Day 2, 20 mg/kg followed by 25 mg/kg; Day 3, 30 mg/kg followed by 35 mg/kg; Day 4, 40 mg/kg followed by 45 mg/kg). On Day 1 to Day 4, the mice were administered intraperitoneally with the compound of Example 45 (Compound 26) at 10 mg/kg or saline, the solvent of the compound, 30 minutes prior to every first administration of morphine hydrochloride. On Day 5, the mice were administered subcutaneously with the compound of Example 45 (Compound 26) at 10 mg/kg or saline, and 30 minutes later administered subcutaneously with morphine hydrochloride at 45 mg/kg as the final dose. Two hours after the final administration of morphine hydrochloride, the mice were administered subcutaneously with naloxone hydrochloride at 3 mg/kg; symptoms of withdrawal syndrome (jumping, body shake, ptosis, forepaw tremor, rearing, body weight loss, and diarrhea) which appeared 60 minutes after administration of naloxone hydrochloride were observed. Body weight was measured before and every 15 minutes after naloxone hydrochloride administration. Moreover, diarrhea was graded according to a three-point scoring system based on the appearance of feces: normal feces (Normal), loose feces (Slightly), and liquid feces or liquid diarrhea (Severe). The other symptoms of withdrawal syndrome were evaluated based on the presence or absence of their manifestation. Statistical analysis was performed using chi square test and two-way analysis of variance and setting the significance level at p<0.05."}, "[2]": {"system": "male ICR mice with morphine physical dependence", "experiment": "Evaluation of the therapeutic effect on drug dependence (naloxone-induced withdrawal syndrome in morphine-dependent mice)", "format": "in vivo", "conditions": "10 mg/kg i.p. 30 minutes prior to naloxone 3 mg/kg s.c., after repeated morphine", "description": "Increasing doses of morphine hydrochloride dissolved in saline were administered subcutaneously to 7-week-old male ICR mice twice daily (dosing interval: about 12 hours) for four days (dose: Day 1, 8 mg/kg followed by 15 mg/kg; Day 2, 20 mg/kg followed by 25 mg/kg; Day 3, 30 mg/kg followed by 35 mg/kg; Day 4, 40 mg/kg followed by 45 mg/kg). On Day 5, the mice were administered subcutaneously with morphine hydrochloride at 45 mg/kg as the final dose. Two hours after the final administration of morphine hydrochloride, the mice were administered subcutaneously with naloxone hydrochloride at 3 mg/kg. The mice were administered intraperitoneally with the compound of Example 45 (Compound 26) at 10 mg/kg or saline, the solvent of the compound, 30 minutes prior to the administration of naloxone hydrochloride. Symptoms of withdrawal syndrome (jumping, body shake, ptosis, forepaw tremor, rearing, body weight loss, and diarrhea) which appeared 60 minutes after the last dose of naloxone hydrochloride were observed. Body weight was measured before and every 15 minutes after naloxone hydrochloride administration. Moreover, diarrhea was graded according to a three-point scoring system based on the appearance of feces: normal feces, loose feces, and liquid feces or liquid diarrhea. The other symptoms of withdrawal syndrome were evaluated based on the presence or absence of their manifestation. Statistical analysis was performed using chi square test and two-way analysis of variance and setting the significance level at p<0.05."}, "[3]": {"conditions": "CHOOX1R cells, 300 pM OX-A, Fura-2 calcium, read-out: OX1 (IC50)"}, "[4]": {"conditions": "CHOOX2R cells, 300 pM OX-A, Fura-2 calcium, read-out: OX2 (IC50)"}}, "note": "Where “and” joins values, the source holds several entries; their conditions need not be identical. Identical values can stand only once. Like-named read-outs stand apart in the source and are kept apart here.", "data": [{"smiles": "COc1ccc2c3c1O[C@H]1[C@H](N(C)C(=O)Nc4ccccc4)CC[C@@]4(O)[C@@H](C2)N(S(=O)(=O)c2ccccc2)CC[C@]314", "note": "[Example 41]", "values": [{"measurement": "IC50", "setting": "human OX1R; [3]", "value": 159, "unit": "nM"}, {"measurement": "antagonistic activity against human OX1 receptor (in words)", "setting": "human OX1R", "value": "potent and selective antagonistic activity"}, {"measurement": "IC50", "setting": "human OX2R; [4]", "value": "> 10", "unit": "µM"}]}, {"smiles": "COc1ccc2c3c1O[C@H]1[C@H](N(C)C(=O)NCc4ccccc4)CC[C@@]4(O)[C@@H](C2)N(S(=O)(=O)c2ccccc2)CC[C@]314", "note": "[Example 42]", "values": [{"measurement": "IC50", "setting": "human OX1R; [3]", "value": 688, "unit": "nM"}, {"measurement": "antagonistic activity against human OX1 receptor (in words)", "setting": "human OX1R", "value": "potent and selective antagonistic activity"}, {"measurement": "IC50", "setting": "human OX2R; [4]", "value": "> 10", "unit": "µM"}]}, {"smiles": "COc1ccc2c3c1O[C@H]1[C@H](N(C)C(=O)/C=C/c4ccccn4)CC[C@@]4(O)[C@@H](C2)N(S(=O)(=O)c2ccccc2N(C)C)CC[C@]314", "note": "[Example 45, (E)-N-[(4R,4aS,7R,7aR,12bS)-3-{[2-(dimethylamino)phenyl]sulfonyl}-4a-hydroxy-9-methoxy-2,3,4,4a,5,6,7,7a-octahydro-1H-4,12-methanobenzofuro[3,2-e]isoquinolin-7-yl]-N-methyl-3-(pyridin-2-yl)acrylamide]", "values": [{"measurement": "IC50", "setting": "human OX1R", "value": 3.61, "unit": "nM"}, {"measurement": "antagonistic activity against human OX1 receptor (in words)", "setting": "human OX1R", "value": "potent and selective antagonistic activity"}, {"measurement": "Body shake: number of animals with withdrawal syndrome/total number of animals", "setting": "[1]", "value": "6/8"}, {"measurement": "Diarrhea score Liquid feces or liquid diarrhea (number of corresponding animals/total number of animals)", "setting": "[1]", "value": "2/8"}, {"measurement": "Diarrhea score Loose feces (number of corresponding animals/total number of animals)", "setting": "[1]", "value": "4/8"}, {"measurement": "Diarrhea score Normal feces (number of corresponding animals/total number of animals)", "setting": "[1]", "value": "2/8"}, {"measurement": "Forepaw tremor: number of animals with withdrawal syndrome/total number of animals", "setting": "[1]", "value": "6/8"}, {"measurement": "Jumping: number of animals with withdrawal syndrome/total number of animals", "setting": "[1]", "value": "statistically significantly suppressed and 1/8*"}, {"measurement": "Ptosis: number of animals with withdrawal syndrome/total number of animals", "setting": "[1]", "value": "tendency to suppress and 4/8"}, {"measurement": "Rearing: number of animals with withdrawal syndrome/total number of animals", "setting": "[1]", "value": "tendency to suppress and 5/8"}, {"measurement": "diarrhea (withdrawal syndrome, in words)", "setting": "[1]", "value": "statistically significantly suppressed"}, {"measurement": "body weight loss (withdrawal syndrome)", "setting": "[1]; FIG. 1", "value": "statistically significantly suppressed"}, {"measurement": "IC50", "setting": "human OX2R", "value": "> 10", "unit": "µM"}, {"measurement": "Body shake: number of animals with withdrawal syndrome/total number of animals", "setting": "[2]", "value": "7/13"}, {"measurement": "Diarrhea score Liquid feces or liquid diarrhea (number of corresponding animals/total number of animals)", "setting": "[2]", "value": "3/13"}, {"measurement": "Diarrhea score Loose feces (number of corresponding animals/total number of animals)", "setting": "[2]", "value": "8/13"}, {"measurement": "Diarrhea score Normal feces (number of corresponding animals/total number of animals)", "setting": "[2]", "value": "2/13"}, {"measurement": "Forepaw tremor: number of animals with withdrawal syndrome/total number of animals", "setting": "[2]", "value": "11/13"}, {"measurement": "Jumping: number of animals with withdrawal syndrome/total number of animals", "setting": "[2]", "value": "statistically significantly suppressed and 2/13**"}, {"measurement": "Ptosis: number of animals with withdrawal syndrome/total number of animals", "setting": "[2]", "value": "tendency to suppress and 3/13"}, {"measurement": "Rearing: number of animals with withdrawal syndrome/total number of animals", "setting": "[2]", "value": "11/13"}, {"measurement": "diarrhea (withdrawal syndrome, in words)", "setting": "[2]", "value": "statistically significantly suppressed"}, {"measurement": "body weight loss (withdrawal syndrome)", "setting": "[2]; FIG. 2", "value": "statistically significantly suppressed"}]}]}
